# Source: US9925204B2, “Anti-inflammatory compounds in combination with hydrogen for the treatment of inflammation” (priority 2012, dated 2018)
# Like-named read-outs stand apart in the source and are kept apart here.
# Tests used:
# [1] = H2 concentration in ascites fluid after ingestion (Example 2); format: in vivo, mouse; conditions: for H2 concentration in ascites fluid after ingestion of sugar solution: mouse abdominal cavity, ranking among sugars tested
# Protocol: Lactose, glucose, galactose, fructose, mannitol, inulin, Splenda® (McNeil Nutritionals (sucralose)), Equal® (Merisant (aspartame, dextrose, and maltodextrin)), and lactulose were tested along with a control.
# After 30 minutes, H2-enriched water provided approximately 40 μM H2 concentration but dropped off to approximately 15 μM after 4 hours. At 4 hours, lactulose provided over 20 μM H2 concentration.
# [2] = test system: mouse foot pad inflammation induced by Freund's complete adjuvant (FCA); assay: Freund's complete adjuvant induced foot pad inflammation in mice (Example 1); format: in vivo
# Protocol: Mice were placed in the following administration groups, and administration occurred daily:
# 1) Control (no treatment) (n=4)
# 2) Placebo (PBS, i.p.) inoculation—(i.e. CFA only) (n=4)
# 3) H2 enriched PBS inoculation (i.e. CFA+H2) (n=4)
# 4) Lactulose inoculation at 0.5 mL/mouse (i.e. CFA+Lact) (n=4)
# 5) LYRICA® (i.e. CFA+Lyr) (n=5)
# 6) LYRICA®+H2 enriched PBS (i.e. CFA+Lyr+H2) (n=5)
# 7) LYRICA®+Lactulose in PBS (i.e. CFA+Lact+H2) (n=4)
# CFA was injected into the mice in groups 2 through 7 above. Inflammation was induced in the mice by injection of Freund's complete adjuvant (FCA), 25 μL/foot, on day 0 as shown in FIG. 1A. […] These measurements included thickness of foot pad (level of inflammation), amount of H2 in abdominal cavity, amount of nerve growth factor (NGF) (pain marker) in foot pad, amount of Substance P (pain marker) in foot pad, and amount of IL-1β in foot pad (level of inflammation).
# [3] = test system: Freund's complete adjuvant-induced hind paw inflammation in mice; assay: Freund's complete adjuvant-induced hind paw inflammation in mice (Example 4); format: in vivo, mice (BALB/c); conditions: day 7, versus mice without lactulose
# Protocol: The following experiment was performed to test the effects of Lactulose combined with Celecoxib or Ibuprofen on Freund's complete adjuvant-induced hind paw inflammation in mice, with the results shown in FIGS. 12-15.
# For induction of hindpaw inflammation, mice (BALB/c; 8 w old male n=6/group) received i.pl. injection of 25 μl of complete Freund's adjuvant (CFA, diluted 1:1 with PBS, 2 mg/ml; Mycobacterium tuberculosis; Difco Laboratories, Detroit, Mich.). Lactulose (10% water) or control water alone was administered once in a day for 7 days (500 μl/day) by oral gavage using a 20-G bulb-tipped gastric gavage needle (P.O.). Celecoxib (Toronto Research Chemicals) and Ibuprofen (Enzo Life Sciences) dissolved in PBS was applied to mice once a day via intra-peritoneal (i.p.) injection (10 mg/kg/day, respectively) for 7 days. The thickness of the foot pad was measured using a digital microcaliper as mice were sacrificed on 7 day. Surgically removed hind paw tissue was homogenized in EIA-Buffer (Cayman) and subjected to mouse NGF ELISA (Millipore), PGE2 EIA (Cayman), or TNF-α ELISA (R&D systems).
# [4] = test system: tonic extensor seizures in mice; conditions: cited from earlier work; for Effect # Protected/# Tested / Ataxia # Ataxia/# Tested: mice, intravenous, 120 min after dose; for Effect # Protected/# Tested: electroshock
# [5] = test system: GAD; conditions: cited from earlier work
# [6] = test system: mouse macrophage cell line (RAW264.7); assay: TNF-α production from LPS-stimulated mouse macrophages (Example 3); format: cell-based; conditions: LPS-stimulated RAW264.7, 24 hours, ELISA; drug 10-1000 nM, with or without H2
# Protocol: The following is an in vitro experiment to test the effects of hydrogen on the Celecoxib- or Ibuprofen-mediated anti-inflammatory activities, and the results are shown in FIGS. 10 and 11.
# The mouse macrophage cell line (RAW264.7) was seeded at a density of 1.0×10^5 cells/well in 96-well culture plates in Minimum Essential Medium Alpha ( ? -MEM, Sigma) supplemented with penicillin G solution (100 U/ml, GIBCO; Invitrogen, Buffalo, N.Y.), streptomycin ([…], GIBCO; Invitrogen), and gentamicin (50 ? g/ml, GIBCO; Invitrogen) containing 10% FBS in the presence or absence of H2 (300 nM/ml) for 30 min. Then the cells were exposed to LPS (0.1 mg/ml, Invivogen, San Diego, Calif.), with or without a variety of concentrations of Celecoxib or Ibuprofen (10-1000 nM). After culture of the RAW264.7 cells for 24 hours in a CO2 incubator (37° C.), the culture supernatant was harvested and subjected to TNF-α ELISA (R&D Systems).
compound,measurement,setting,value
"OC[C@H]1O[C@@H](O[C@@H]2[C@@H](CO)OC(O)(CO)[C@H]2O)[C@H](O)[C@@H](O)[C@H]1O (mixture of isomers) [Lactulose, lactulose]",H2 concentration in ascites fluid,[1]; after 4 hours,over 20 μM
same,H2 concentration in ascites fluid after ingestion of sugar solution,[1],highest concentration of H2 in ascites fluid
same,H2 concentration in the abdomen,"[2]; day 8, CFA-injected mice",highest
same,foot pad swelling,"[3]; lactulose 10% P.O. 500 μl/day, drug 10 mg/kg/day i.p.",reduced
same,NGF in inflamed foot pads,[3],reduced
same,amount of PGE2 in inflamed foot pads,[3],reduced
same,amount of TNF-α in inflamed foot pads,[3],greatly reduced
"CC(CN)CC(=O)O (racemic) [(R,S)—CH3]",Effect # Protected/# Tested,[4]; 10 mg/kg,0/5
same,Ataxia # Ataxia/# Tested,[4]; 10 mg/kg,0/5
same,Effect # Protected/# Tested,[4]; 30 mg/kg,4/5
same,Ataxia # Ataxia/# Tested,[4]; 30 mg/kg,0/5
same,Effect # Protected/# Tested,[4]; 100 mg/kg,3/5
same,Ataxia # Ataxia/# Tested,[4]; 100 mg/kg,0/5
"CC(C)CC(CN)CC(=O)O (racemic) [(R,S)—i-C4H9, H, 4-amino-3-(2-methylpropyl)butanoic acid]",activating GAD in vitro,[5]; compared with the other analogs tested,least effective one of the analogs tested
same,potency when tested in vivo,[4]; compared with the other analogs,more potent than the other analogs
"CC(N)CCC(=O)O (racemic) [H(R,S)]",Activation of GAD by GABA analogs expressed in %,[5]; 0.25 mM,104%
same,Activation of GAD by GABA analogs expressed in %,[5]; 1.0 mM,111%
same,Activation of GAD by GABA analogs expressed in %,[5]; 2.5 mM,140%
"CC(C)Cc1ccc(C(C)C(=O)O)cc1 (racemic) [ibuprofen, (RS)-2-(4-(2-methylpropyl)phenyl)propanoic acid]",TNF-α production,[6],TNF-α suppression
CC(C)(CN)CC(=O)O [(CH3)2],Effect # Protected/# Tested,[4]; 30 mg/kg,4/5
same,Ataxia # Ataxia/# Tested,[4]; 30 mg/kg,0/5
same,Effect # Protected/# Tested,[4]; 100 mg/kg,4/5
same,Ataxia # Ataxia/# Tested,[4]; 100 mg/kg,0/5
"NCC1(CC(=O)O)CCCCC1 [GABAPENTIN, gabapentin]",Activation of GAD by GABA analogs expressed in %,[5]; 0.25 mM,105%
same,Activation of GAD by GABA analogs expressed in %,[5]; 1.0 mM,145%
same,Activation of GAD by GABA analogs expressed in %,[5]; 2.5 mM,178%
C[C@@H](N)CCC(=O)O [H(R)],Activation of GAD by GABA analogs expressed in %,[5]; 0.25 mM,108%
same,Activation of GAD by GABA analogs expressed in %,[5]; 1.0 mM,125%
same,Activation of GAD by GABA analogs expressed in %,[5]; 2.5 mM,173%
C[C@H](N)CCC(=O)O [H(S)],Activation of GAD by GABA analogs expressed in %,[5]; 0.25 mM,100%
same,Activation of GAD by GABA analogs expressed in %,[5]; 1.0 mM,100%
same,Activation of GAD by GABA analogs expressed in %,[5]; 2.5 mM,100%
"CC(C)C[C@H](CN)CC(=O)O [LYRICA®, (S)-(+)-4-amino-3-(2-methylpropyl)butanoic acid]",IL-1β in tissue (level of inflammation),[2]; CFA-injected mice,slightly reduced levels of inflammation compared to placebo group 2
same,Substance P (pain marker) in tissue,[2]; CFA-injected mice,reduction in the marker compared to the placebo group 2
CCCC(CCC)C(=O)[O-].[Na+] [Sodium Valproate],Activation of GAD by GABA analogs expressed in %,[5]; 0.05 mM,105%
same,Activation of GAD by GABA analogs expressed in %,[5]; 0.1 mM,115%
same,Activation of GAD by GABA analogs expressed in %,[5]; 0.25 mM,119%
same,Activation of GAD by glutamate analogs expressed in %,[5]; 0.25 mM,119%
same,Activation of GAD by GABA analogs expressed in %,[5]; 0.5 mM,124%
same,Activation of GAD by GABA analogs expressed in %,[5]; 1.0 mM,138%
same,Activation of GAD by glutamate analogs expressed in %,[5]; 1.0 mM,138%
same,Activation of GAD by GABA analogs expressed in %,[5]; 2.5 mM,207%
same,Activation of GAD by glutamate analogs expressed in %,[5]; 2.5 mM,207%
"CC(C)CC(CN)CC(=O)O (stereo not drawn) [i-C4H9, 4-amino-3-(2-methylpropyl)butanoic acid]",Effect # Protected/# Tested,[4]; 0.3 mg/kg,1/10
same,Effect # Protected/# Tested,[4]; 0.8 mg/kg,3/10
same,Effect # Protected/# Tested,[4]; 2.0 mg/kg,5/10
same,Effect # Protected/# Tested,[4]; 5.5 mg/kg,7/10
CC(C)(C)CC(CN)CC(=O)O (stereo not drawn) [neo-C5H11],Effect # Protected/# Tested,[4]; 10 mg/kg,2/10
same,Ataxia # Ataxia/# Tested,[4]; 10 mg/kg,0/10
same,Effect # Protected/# Tested,[4]; 30 mg/kg,4/10
same,Ataxia # Ataxia/# Tested,[4]; 30 mg/kg,0/10
same,Effect # Protected/# Tested,[4]; 100 mg/kg,4/10
same,Ataxia # Ataxia/# Tested,[4]; 100 mg/kg,0/10
CCC(C)C(CN)CC(=O)O (stereo not drawn) [s-C4H9],Effect # Protected/# Tested,[4]; 3 mg/kg,2/10
same,Ataxia # Ataxia/# Tested,[4]; 3 mg/kg,0/10
same,Effect # Protected/# Tested,[4]; 10 mg/kg,3/10
same,Ataxia # Ataxia/# Tested,[4]; 10 mg/kg,0/10
same,Effect # Protected/# Tested,[4]; 30 mg/kg,2/10
same,Ataxia # Ataxia/# Tested,[4]; 30 mg/kg,0/10
CC(C)(C)C(CN)CC(=O)O (stereo not drawn) [t-C4H9],Effect # Protected/# Tested,[4]; 10 mg/kg,2/10
same,Ataxia # Ataxia/# Tested,[4]; 10 mg/kg,0/10
same,Effect # Protected/# Tested,[4]; 30 mg/kg,2/10
same,Ataxia # Ataxia/# Tested,[4]; 30 mg/kg,0/10
same,Effect # Protected/# Tested,[4]; 100 mg/kg,5/10
same,Ataxia # Ataxia/# Tested,[4]; 100 mg/kg,0/10
inulin,H2 concentration in ascites fluid after ingestion of sugar solution,[1],next highest concentration
